From patent US12581252B2, “Substituted pyrrolo[3,4-b]pyridines as PI3K-α inhibitors” (Relay Therapeutics, Inc., priority 2020, dated 2026)

Legend:
[1] = cells; settings: Homo sapiens, MCF-10A, read-out: MCF10A IC50
[2] = molecular target: H1047R PIK3CA enzyme (Homo sapiens, UniProt P42336, H1047R); assay: ADP-Glo Biochemical PIK3CA Kinase Assay
Chain of H1047R PIK3CA enzyme (P42336 whole entry H1047R): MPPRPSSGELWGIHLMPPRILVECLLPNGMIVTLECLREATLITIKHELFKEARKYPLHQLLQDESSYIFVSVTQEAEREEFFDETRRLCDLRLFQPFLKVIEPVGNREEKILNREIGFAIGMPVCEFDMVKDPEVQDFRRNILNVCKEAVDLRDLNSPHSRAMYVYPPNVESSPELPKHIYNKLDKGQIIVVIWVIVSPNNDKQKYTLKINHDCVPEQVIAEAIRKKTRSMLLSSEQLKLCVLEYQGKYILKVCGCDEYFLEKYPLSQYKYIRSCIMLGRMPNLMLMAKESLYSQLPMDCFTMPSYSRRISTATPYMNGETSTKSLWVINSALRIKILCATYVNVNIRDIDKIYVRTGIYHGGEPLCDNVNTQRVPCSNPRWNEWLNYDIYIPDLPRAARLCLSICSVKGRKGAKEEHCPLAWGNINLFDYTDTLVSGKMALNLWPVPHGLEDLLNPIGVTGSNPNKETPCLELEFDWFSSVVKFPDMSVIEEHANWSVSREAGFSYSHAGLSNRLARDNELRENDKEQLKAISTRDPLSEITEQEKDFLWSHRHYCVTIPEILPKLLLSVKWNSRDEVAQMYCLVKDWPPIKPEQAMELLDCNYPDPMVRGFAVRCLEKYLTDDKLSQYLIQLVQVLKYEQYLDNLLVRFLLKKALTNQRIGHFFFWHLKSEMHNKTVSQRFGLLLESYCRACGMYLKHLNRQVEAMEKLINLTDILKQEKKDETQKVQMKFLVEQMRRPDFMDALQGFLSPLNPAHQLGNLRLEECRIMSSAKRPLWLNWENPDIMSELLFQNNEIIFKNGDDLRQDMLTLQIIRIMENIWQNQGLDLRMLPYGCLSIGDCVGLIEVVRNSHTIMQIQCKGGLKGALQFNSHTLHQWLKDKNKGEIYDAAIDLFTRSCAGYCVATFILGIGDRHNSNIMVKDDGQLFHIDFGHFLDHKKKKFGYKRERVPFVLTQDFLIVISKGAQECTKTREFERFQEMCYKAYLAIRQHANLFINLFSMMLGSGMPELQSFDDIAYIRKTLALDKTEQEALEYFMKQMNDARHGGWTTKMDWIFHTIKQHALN
Chain of H1047R PIK3CA enzyme (P27986 whole entry partner): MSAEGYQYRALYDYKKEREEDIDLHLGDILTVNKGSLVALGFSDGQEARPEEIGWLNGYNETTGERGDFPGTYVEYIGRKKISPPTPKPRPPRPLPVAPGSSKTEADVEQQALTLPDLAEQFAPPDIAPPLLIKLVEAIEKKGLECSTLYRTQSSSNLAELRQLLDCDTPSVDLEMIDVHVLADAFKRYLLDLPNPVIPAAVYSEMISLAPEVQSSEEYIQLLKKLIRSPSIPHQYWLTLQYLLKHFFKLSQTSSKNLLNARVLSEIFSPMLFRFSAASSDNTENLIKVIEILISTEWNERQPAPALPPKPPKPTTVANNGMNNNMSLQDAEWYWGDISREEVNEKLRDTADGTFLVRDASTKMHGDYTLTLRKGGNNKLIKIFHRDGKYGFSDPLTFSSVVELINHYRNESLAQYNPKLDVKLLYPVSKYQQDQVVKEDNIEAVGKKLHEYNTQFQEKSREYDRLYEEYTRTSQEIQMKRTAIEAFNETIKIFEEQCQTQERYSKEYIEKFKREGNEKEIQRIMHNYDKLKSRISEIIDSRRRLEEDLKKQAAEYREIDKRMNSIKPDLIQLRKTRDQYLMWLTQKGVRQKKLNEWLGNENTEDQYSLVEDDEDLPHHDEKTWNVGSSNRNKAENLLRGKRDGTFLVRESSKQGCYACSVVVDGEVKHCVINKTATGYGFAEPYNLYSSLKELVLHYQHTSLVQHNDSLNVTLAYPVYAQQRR

Row | Structure (SMILES) | IC50 [1] | IC50 [2]
1 | O=C(Nc1cc(-c2cccc3nonc23)cc2c1C(c1cc(F)ccc1Cl)NC2=O)c1cc(F)cc(C(F)(F)F)c1 (stereo not drawn) [Compound I-1031] | < 1000 nM | ≤ 100 nM
2 | N#CCc1cc(NC(=O)N2CC(O)(C(F)(F)F)c3cc(F)ccc32)c2c(c1)C(=O)NC2c1cc(F)ccc1Cl (mixture of isomers) [Compound I-2596] | < 1000 nM | ≤ 100 nM
3 | O=C(Nc1cc(-c2ccc3ncccc3c2)cc2c1[C@H](c1cc(F)ccc1Cl)NC2=O)c1cc(F)cc(C(F)(F)F)c1 [Compound I-894] | < 1000 nM | ≤ 100 nM
4 | O=C(Nc1cc(-c2ccncc2F)cc2c1C(c1cc(F)ccc1Cl)NC2=O)c1cc(F)cc(C(F)(F)F)c1 (stereo not drawn) [Compound I-887] | < 1000 nM | ≤ 100 nM
5 | O=C(Nc1cc(-c2cn3ncnc3cn2)cc2c1[C@H](c1cc(F)ccc1C(F)F)NC2=O)c1cc(F)cc(Cl)c1 (single isomer, unassigned) [Compound I-2259] | < 1000 nM | ≤ 100 nM
6 | O=C(Nc1cc(-c2ccc(N3CCOCC3)nc2)cc2c1C(c1cc(F)ccc1Cl)NC2=O)c1cc(F)cc(C(F)(F)F)c1 (stereo not drawn) [Compound I-929] | < 1000 nM | ≤ 100 nM
7 | Cn1ncnc1Nc1cc(NC(=O)c2cc(F)cc(C(F)(F)F)c2)c2c(c1)C(=O)NC2c1cc(F)ccc1Cl (stereo not drawn) [Compound I-974] | < 1000 nM | ≤ 100 nM
8 | Cn1cc2cc(-c3cc(NC(=O)c4cc(F)cc(C(F)(F)F)c4)c4c(c3)C(=O)NC4c3cc(F)ccc3Cl)ccc2n1 (stereo not drawn) [Compound I-1029] | < 1000 nM | ≤ 100 nM
9 | O=C(Nc1cc(-c2nc3ccccc3[nH]2)cc2c1C(c1cc(F)ccc1Cl)NC2=O)c1cc(F)cc(C(F)(F)F)c1 (stereo not drawn) [Compound I-1101] | < 1000 nM | ≤ 100 nM
10 | O=C(Nc1cc(NC2=NC3(CC3)CO2)cc2c1C(c1cc(F)ccc1Cl)NC2=O)c1cc(F)cc(C(F)(F)F)c1 (stereo not drawn) [Compound I-2359] | 1000 to 5000 nM | ≤ 100 nM
11 | Cc1ccccc1C1NC(=O)c2cccc(NC(=O)c3coc4ccc(F)cc34)c21 (stereo not drawn) [Compound I-19] | 1000 to 5000 nM | 500 to 1000 nM
12 | Cc1ccccc1[C@@H]1NC(=O)c2cc(C(=O)NCC(F)F)cc(NC(=O)c3nsc4ccccc34)c21 [Compound I-166] | < 1000 nM | ≤ 100 nM
13 | O=C(Nc1cc(C2CN(c3ccncn3)C2)cc2c1C(c1cc(F)ccc1Cl)NC2=O)c1cc(F)cc(C(F)(F)F)c1 (stereo not drawn) [Compound I-1104] | < 1000 nM | ≤ 100 nM
14 | O=C1N[C@@H](c2cc(F)ccc2Cl)c2c(NC(=O)N3CCc4cc(F)ccc43)cc(-c3cnn(C(F)F)c3)cc21 (single isomer, unassigned) [Compound I-2357] | < 1000 nM | ≤ 100 nM
15 | O=C1N[C@@H](c2cc(F)ccc2Cl)c2c(NC(=O)N3C[C@](O)(C(F)(F)F)c4cc(F)ccc43)ccc(-n3cccn3)c21 (single isomer, unassigned) [Compound I-2497] | < 1000 nM | ≤ 100 nM
16 | O=C(Nc1cc(OCCO)cc2c1C(c1cc(F)ccc1Cl)NC2=O)c1cc(F)cc(C(F)(F)F)c1 (stereo not drawn) [Compound I-1064] | < 1000 nM | ≤ 100 nM
17 | O=C1NC(c2cc(F)ccc2Cl)c2c(NC(=O)N3CCc4cc(F)ccc43)cc(-c3cnn(C(F)F)c3)cc21 (stereo not drawn) [Compound I-2300] | 1000 to 5000 nM | ≤ 100 nM
18 | O=C(Nc1cc(-c2cc3ncccc3[nH]2)cc2c1C(c1cc(F)ccc1Cl)NC2=O)c1cc(F)cc(C(F)(F)F)c1 (stereo not drawn) [Compound I-970] | < 1000 nM | ≤ 100 nM
19 | O=C1N[C@@H](c2cc(F)ccc2Cl)c2c(NC(=O)N3C[C@](O)(C(F)(F)F)c4cc(F)ccc43)ccc(-n3nccn3)c21 (single isomer, unassigned) [Compound I-2525] | < 1000 nM | ≤ 100 nM
20 | O=C1N[C@H](c2cc(F)ccc2Cl)c2c(NC(=O)N3C[C@H](O)c4c3ccc(F)c4F)cccc21 (single isomer, unassigned) [Compound I-2310] | < 1000 nM | ≤ 100 nM
21 | CC(C)(O)CNc1cc(NC(=O)c2cc(F)cc(C(F)(F)F)c2)c2c(c1)C(=O)N[C@@H]2c1cc(F)ccc1Cl [Compound I-900] | < 1000 nM | ≤ 100 nM
22 | Cc1ccccc1C1NC(=O)c2cc(NC(C)C)cc(NC(=O)c3csc4ccccc34)c21 (stereo not drawn) [Compound I-53] | < 1000 nM | ≤ 100 nM
23 | C[S+]([O-])Cc1cc(NC(=O)c2cc(F)cc(C(F)(F)F)c2)c2c(c1)C(=O)NC2c1cc(F)ccc1Cl (stereo not drawn) [Compound I-962] | < 1000 nM | ≤ 100 nM
24 | COc1nccc(-c2cc(NC(=O)c3cc(F)cc(C(F)(F)F)c3)c3c(c2)C(=O)NC3c2cc(F)ccc2Cl)n1 (stereo not drawn) [Compound I-1105] | < 1000 nM | ≤ 100 nM
25 | Nc1cc(NC(=O)N2C[C@@H](O)c3cc(F)ccc32)c2c(c1)C(=O)N[C@@H]2c1cc(F)ccc1Cl (single isomer, unassigned) [Compound I-2410] | < 1000 nM | ≤ 100 nM
26 | O=C(Nc1cc(-c2cccnc2)cc2c1[C@@H](c1cc(F)ccc1Cl)NC2=O)c1cc(F)cc(C(F)(F)F)c1 (stereo in doubt) [Compound I-1009] | < 1000 nM | ≤ 100 nM

Row | Structure (SMILES) | IC50 [1] | IC50 [2]
27 | Cc1ccccc1C1NC(=O)c2cc(Br)cc(NC(=O)c3cc(F)cc(C(F)(F)F)c3)c21 (stereo not drawn) [Compound I-54] | 1000 to 5000 nM | 100 to 500 nM
28 | O=C(Nc1cc(NC2=NCCO2)cc2c1C(c1cc(F)ccc1Cl)NC2=O)c1cc(F)cc(C(F)(F)F)c1 (stereo not drawn) [Compound I-2256] | 1000 to 5000 nM | ≤ 100 nM
29 | O=C1N[C@@H](c2cc(F)ccc2Cl)c2c(NC(=O)N3CCc4ccccc43)cc(-c3ccc4ncnn4c3)cc21 (stereo in doubt) [Compound I-1715] | < 1000 nM | ≤ 100 nM
30 | O=C1NC(c2cc(F)ccc2Cl)c2c(NC(=O)N3CC(C(F)F)c4ccccc43)cccc21 (mixture of isomers) [Compound I-2246] | 1000 to 5000 nM | ≤ 100 nM
31 | CC(C)(O)Cn1cc(-c2cc(NC(=O)c3cc(F)cc(C(F)(F)F)c3)c3c(c2)C(=O)N[C@H]3c2cc(F)ccc2Cl)cn1 [Compound I-1097] | < 1000 nM | ≤ 100 nM
32 | N#Cc1ccc(-c2cc(NC(=O)c3cc(F)cc(C(F)(F)F)c3)c3c(c2)C(=O)NC3c2cc(F)ccc2Cl)cn1 (stereo not drawn) [Compound I-928] | < 1000 nM | ≤ 100 nM
33 | O=C(Nc1cc(-c2cnn(C3CNC3)c2)cc2c1C(c1cc(F)ccc1Cl)NC2=O)c1cc(F)cc(C(F)(F)F)c1 (stereo not drawn) [Compound I-903] | 10000 to 36000 nM | ≤ 100 nM
34 | COc1c(F)cccc1-c1cc(NC(=O)c2cc(F)cc(C(F)(F)F)c2)c2c(c1)C(=O)NC2c1cc(F)ccc1Cl (stereo not drawn) [Compound I-1156] | < 1000 nM | ≤ 100 nM
35 | Cc1cc2cnn(C)c2cc1-c1cc(NC(=O)c2cc(F)cc(C(F)(F)F)c2)c2c(c1)C(=O)NC2c1cc(F)ccc1Cl (stereo not drawn) [Compound I-933] | 5000 to 10000 nM | 100 to 500 nM
36 | Cn1cc(-c2cc(NC(=O)c3cc(F)cc(C(F)(F)F)c3)c3c(c2)C(=O)NC3c2cc(F)ccc2Cl)ncc1=O (stereo not drawn) [Compound I-1016] | < 1000 nM | ≤ 100 nM
37 | O=C1N[C@@H](c2cc(F)ccc2Cl)c2c(NC(=O)N3C[C@](O)(C(F)(F)F)c4cc(F)ccc43)cc(Cl)nc21 (single isomer, unassigned) [Compound I-2704] | < 1000 nM | ≤ 100 nM
38 | O=C(Nc1cc(-c2ncc[nH]2)cc2c1[C@H](c1cc(F)ccc1Cl)NC2=O)c1cc(F)cc(C(F)(F)F)c1 [Compound I-919] | < 1000 nM | ≤ 100 nM
39 | CC(C)(O)c1cc(NC(=O)c2nsc3ccccc23)c2c(c1)C(=O)N[C@H]2c1cc(F)ccc1Cl [Compound I-192] | < 1000 nM | ≤ 100 nM
40 | C[C@]1(O)CN(C(=O)Nc2cccc3c2[C@H](c2cc(F)ccc2Cl)NC3=O)c2ccccc21 (single isomer, unassigned) [Compound I-2205] | < 1000 nM | ≤ 100 nM
41 | O=C1N[C@H](c2cc(F)ccc2Cl)c2c(NC(=O)N3C[C@@](O)(C(F)(F)F)c4cc(F)ccc43)cc(Cl)nc21 (single isomer, unassigned) [Compound I-2703] | < 1000 nM | ≤ 100 nM
42 | O=C1N[C@H](c2cc(F)ccc2Cl)c2c(NC(=O)N3C[C@H](O)c4cc(F)ccc43)cc(-n3ccnn3)cc21 (single isomer, unassigned) [Compound I-2369] | 1000 to 5000 nM | ≤ 100 nM
43 | O=C(Nc1cc(-c2cnc3cnccn23)cc2c1C(c1cc(F)ccc1Cl)NC2=O)c1cc(F)cc(C(F)(F)F)c1 (stereo not drawn) [Compound I-940] | < 1000 nM | ≤ 100 nM
44 | O=C1N[C@H](c2cc(F)ccc2Cl)c2c(NC(=O)N3C[C@@H](O)c4cc(F)ccc43)cc(Cl)cc21 (single isomer, unassigned) [Compound I-2402] | < 1000 nM | ≤ 100 nM
45 | Nc1cc(NC(=O)N2C[C@@H](O)c3cc(F)ccc32)c2c(c1)C(=O)N[C@H]2c1cc(F)ccc1Cl (single isomer, unassigned) [Compound I-2411] | 10000 to 36000 nM | ≤ 100 nM
46 | O=C(Nc1cc(I)cc2c1C(c1cc(F)ccc1Cl)NC2=O)c1cc(F)cc(C(F)(F)F)c1 (stereo not drawn) [Compound I-913] | < 1000 nM | ≤ 100 nM
47 | O=C(Nc1cc(-c2cn[nH]c2)cc2c1[C@H](c1cc(F)ccc1Cl)NC2=O)c1cc(F)cc(C(F)(F)F)c1 [Compound I-1078] | < 1000 nM | ≤ 100 nM
48 | O=C(Nc1cc(-c2cn3ncnc3cn2)cc2c1[C@H](c1cc(F)ccc1Cl)NC2=O)c1cc(F)cc(C(F)(F)F)c1 [Compound I-1441] | < 1000 nM | ≤ 100 nM
49 | O=C(Nc1cc(NC2=N[C@@H](C(F)(F)F)CO2)cc2c1[C@H](c1cc(F)ccc1Cl)NC2=O)c1cc(F)cc(C(F)(F)F)c1 (single isomer, unassigned) [Compound I-2388] | 1000 to 5000 nM | ≤ 100 nM
50 | Cc1nc2ccc(-c3cc(NC(=O)c4cc(F)cc(C(F)(F)F)c4)c4c(c3)C(=O)NC4c3cc(F)ccc3Cl)cn2n1 (stereo not drawn) [Compound I-1123] | < 1000 nM | ≤ 100 nM
51 | Cn1cc(Nc2cc(NC(=O)c3cc(F)cc(C(F)(F)F)c3)c3c(c2)C(=O)NC3c2cc(F)ccc2Cl)cn1 (stereo not drawn) [Compound I-917] | < 1000 nM | ≤ 100 nM
